Experimental data from patent publication US20240199702A1, “CELL-PERMEABLE CYCLIC PEPTIDES AND USES THEREOF” (Unnatural Products Inc., priority 2021, published 2024).
*1 amine or outer side, *2 acyl side, *3 side chain or, on linkers, in order; H or OH if unused. Where a SMILES comes first, the peptide text is derived from it. [ ]: non-standard residue; d: D form. The star is where a group is joined. Ala(4-thiazolyl) = N[C@@H](Cc1cscn1)C(=O)O; NMePhe(4-F) = CN[C@@H](Cc1ccc(F)cc1)C(=O)O; Phe(4-Cl) = N[C@@H](Cc1ccc(Cl)cc1)C(=O)O; Phe(4-F) = N[C@@H](Cc1ccc(F)cc1)C(=O)O; X2 = CC1(C)CN([*:1])[C@@H]1C(=O)[*:2]; Ala(cPent) = N[C@@H](CC1CCCC1)C(=O)O; Cyclohexanecarbonyl = O=C(C1CCCCC1)*; NMeCba = CN[C@@H](CC1CCC1)C(=O)O; NMeF = CN[C@@H](Cc1ccccc1)C(=O)O; NMeI = CC[C@H](C)[C@H](NC)C(=O)O; Cba = N[C@@H](CC1CCC1)C(=O)O; Isovaleryl = CC(C)CC(=O)*; Methoxyacetyl = COCC(=O)*; hSer = N[C@@H](CCO)C(=O)O; NMeA = CN[C@@H](C)C(=O)O; dNMeA = CN[C@H](C)C(=O)O; Nme = COCCNCC(=O)O; X1 = O=C(C(F)F)*

How the values were obtained:
Human MDM4 (HDM4) 1-114 = target: T1, Human MDM4 (HDM4) 1-114 (Homo sapiens, UniProt O15151); test: Fluorescence Polarization Assay 2 (MDM4/p53 peptide); type: binding; settings: FAM-labeled p53 peptide, 60 minutes
T1 construct: Human MDM4 (HDM4) 1-114
T1 sequence (O15151 1-114): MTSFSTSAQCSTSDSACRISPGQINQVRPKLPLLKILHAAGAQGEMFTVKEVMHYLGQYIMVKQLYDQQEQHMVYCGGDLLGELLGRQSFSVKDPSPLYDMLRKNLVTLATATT
Method: Fluorescence Polarization Assay 2
(§1) Human MDM4 (HDM4) 1-114 (20 μL) and FAM-labeled GGTSFAEYWNLLSP —NH2, 20 nM and 5 nM respectively in 10 mM Tris, 50 mM NaCl, 0.01% Tween20, and 1 mM DTT at pH 7.4 were dispensed into an opaque, black, 384 well plate. Compounds dissolved in DMSO were pin transferred (−100-200 nL) to the 384 well plate containing the MDM4/p53 solution. After incubation for 60 minutes, the fluorescence polarization was read on a Molecular Devices SpectraMax plate reader equipped with a Fluorescein FP cartridge. In addition to probe alone (positive control) and probe/MDM4 (negative control), a titration of linear p53(18-26) was included on every plate as an additional control. IC50 values were fit using either Prism or Collaborative Drug Discovery.

Human MDM2 (HDM2) 1-116 = target: T2, Human MDM2 (HDM2) 1-116 (Homo sapiens, UniProt Q00987); test: Fluorescence Polarization Assay 1 (MDM2/p53 peptide); type: binding; settings: FAM-labeled p53 peptide, 60 minutes
T2 construct: Human MDM2 (HDM2) 1-116
Method: Fluorescence Polarization Assay 1
as §1, with “MDM2 (HDM2) 1-116” for “MDM4 (HDM4) 1-114”, “GGTSFAEYWNLLSP-NH2, 10” for “GGTSFAEYWNLLSP —NH2, 20”, “(˜100-200” for “(−100-200”, “MDM2/p53” for “MDM4/p53”, “probe/MDM2” for “probe/MDM4”

MOLM-13 cells = test: Cellular Fluorescence Assay 1 (CellTiter-Glo, 72 hours); type: cell-based
Method: Cellular Fluorescence Assay 1
(§2) MOLM-13 cells were grown in suspension in T75 flasks in RPMI medium with 10% fetal bovine serum (FBS) at 37° C. with 5% CO2. 40 μL ofMOLM-13 cells were plated into columns 1-22 of white, flat bottom, 384 well plates at a density of 1,000 cells per well in RPMI with 10% FBS. Columns 23 and 24 were filled with 40 μL of media as a positive control. 100 nL of compounds dissolved in DMSO were pin transferred into columns 3-22 of the 384 well plate. Columns 1 and 2 served as negative control wells. Plates were incubated for 72 hours at 37° C. with 5% CO2. After incubation, the cells were given 10 μL of CellTiter-Glo® (Promega®). Luminescence was read on a Molecular Devices SpectraMax i3x plate reader.

MV4-11 cells = test: Cellular Fluorescence Assay 2 (CellTiter-Glo, 72 hours); type: cell-based
Method: Cellular Fluorescence Assay 2
as §2, with “MV4-11” for “MOLM-13”, “of MV4-11” for “ofMOLM-13”

T2 sequence (Q00987 1-116): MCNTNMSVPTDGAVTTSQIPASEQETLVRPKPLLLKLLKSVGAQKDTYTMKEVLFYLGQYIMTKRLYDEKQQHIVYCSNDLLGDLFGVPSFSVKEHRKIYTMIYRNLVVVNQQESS

SMILES	IC50 (Human MDM4 (HDM4) 1-114)	IC50 (Human MDM2 (HDM2) 1-116)	IC50 (MOLM-13 cells)	IC50 (MV4-11 cells)
COCC[C@@H]1NC(=O)[C@H]2CCCN2C(=O)[C@H](Cc2ccccc2)N(C)C(=O)[C@H](Cc2ccc(Cl)cc2)NC(=O)[C@H]([C@@H](C)OC(=O)C2CCCCC2)NC(=O)[C@H](Cc2ccc(F)cc2)NC(=O)CN(CCOC)C(=O)[C@@H](C)N(C)C(=O)[C@H](Cc2cscn2)NC(=O)[C@H](C)N(C)C1=O [compound 8] (cyclo([Ala(4-thiazolyl)][dNMeA][Nme][Phe(4-F)]T(Cyclohexanecarbonyl)[Phe(4-Cl)][NMeF][dP][hSer](Me)[NMeA]))	≥ 100 nM	≥ 100 nM	–	–
COCC[C@@H]1NC(=O)[C@H]2CCCN2C(=O)[C@H](Cc2ccccc2)N(C)C(=O)[C@H](Cc2ccc(Cl)cc2)NC(=O)[C@H](CC2CCCC2)NC(=O)[C@H](Cc2ccc(F)cc2)NC(=O)CN(CCOC)C(=O)[C@@H](C)N(C)C(=O)[C@H](C)N(C)C1=O [compound 15] (cyclo([Ala(cPent)][Phe(4-Cl)][NMeF][dP][hSer](Me)[NMeA][dNMeA][Nme][Phe(4-F)]))	50 to 100 nM	< 25 nM	–	–
CC[C@H](C)[C@H]1C(=O)N[C@@H](Cc2ccc(Cl)cc2)C(=O)N(C)[C@@H](Cc2ccccc2)C(=O)N2CCC[C@@H]2C(=O)N[C@@H](CCOC)C(=O)N(C)[C@@H](C)C(=O)N[C@@H](Cc2cscn2)C(=O)N(C)[C@H](C)C(=O)N(CCOC)CC(=O)N[C@@H](Cc2ccc(F)cc2)C(=O)N1C [compound 17] (cyclo([Ala(4-thiazolyl)][dNMeA][Nme][Phe(4-F)][NMeI][Phe(4-Cl)][NMeF][dP][hSer](Me)[NMeA]))	≥ 100 nM	< 25 nM	–	–
COCC[C@@H]1NC(=O)[C@H]2CCCN2C(=O)[C@H](Cc2ccccc2)N(C)C(=O)[C@H](Cc2ccc(Cl)cc2)NC(=O)[C@H](CC2CCC2)NC(=O)[C@H](Cc2ccc(F)cc2)NC(=O)CN(CCOC)C(=O)[C@@H](C)N(C)C(=O)[C@H](C)N(C)C1=O [compound 14] (cyclo([Cba][Phe(4-Cl)][NMeF][dP][hSer](Me)[NMeA][dNMeA][Nme][Phe(4-F)]))	25 to 50 nM	< 25 nM	–	–
COCC[C@@H]1NC(=O)[C@H]2CCCN2C(=O)[C@H](Cc2ccccc2)N(C)C(=O)[C@H](Cc2ccc(Cl)cc2)NC(=O)[C@H](CC2CCC2)N(C)C(=O)[C@H](Cc2ccc(F)cc2)NC(=O)CN(CCOC)C(=O)[C@@H](C)N(C)C(=O)[C@H](Cc2cscn2)NC(=O)[C@H](C)N(C)C1=O [compound 9] (cyclo([Ala(4-thiazolyl)][dNMeA][Nme][Phe(4-F)][NMeCba][Phe(4-Cl)][NMeF][dP][hSer](Me)[NMeA]))	50 to 100 nM	< 25 nM	–	–
COCC[C@@H]1NC(=O)[C@H]2CCCN2C(=O)[C@H](Cc2ccc(F)cc2)N(C)C(=O)[C@H](Cc2ccc(Cl)cc2)NC(=O)[C@H]2N(CC2(C)C)C(=O)[C@H](Cc2ccc(F)cc2)NC(=O)CN(CCOC)C(=O)[C@@H](C)N(C)C(=O)[C@H](Cc2cscn2)NC(=O)[C@H](C)N(C)C1=O [compound 11] (cyclo([Ala(4-thiazolyl)][dNMeA][Nme][Phe(4-F)][X2][Phe(4-Cl)][NMePhe(4-F)][dP][hSer](Me)[NMeA]))	< 25 nM	< 25 nM	≥ 150 nM	100 to 150 nM

Results, then the compound that gave them:

IC50 (Human MDM4 (HDM4) 1-114)	IC50 (Human MDM2 (HDM2) 1-116)	IC50 (MOLM-13 cells)	IC50 (MV4-11 cells)	SMILES
< 25 nM	< 25 nM	–	–	COCC[C@@H]1NC(=O)[C@H]2CCCN2C(=O)[C@H](Cc2ccccc2)N(C)C(=O)[C@H](Cc2ccc(Cl)cc2)NC(=O)[C@H]([C@@H](C)OC)NC(=O)[C@H](Cc2ccc(F)cc2)NC(=O)CN(CCOC)C(=O)[C@@H](C)N(C)C(=O)[C@H](Cc2cscn2)NC(=O)[C@H](C)N(C)C1=O [compound 12] (cyclo([Ala(4-thiazolyl)][dNMeA][Nme][Phe(4-F)]T(Me)[Phe(4-Cl)][NMeF][dP][hSer](Me)[NMeA]))
25 to 50 nM	< 25 nM	–	–	COCC[C@@H]1NC(=O)[C@H]2CCCN2C(=O)[C@H](Cc2ccccc2)N(C)C(=O)[C@H](Cc2ccc(Cl)cc2)NC(=O)[C@H]([C@@H](C)OC(=O)COC)NC(=O)[C@H](Cc2ccc(F)cc2)NC(=O)CN(CCOC)C(=O)[C@@H](C)N(C)C(=O)[C@H](Cc2cscn2)NC(=O)[C@H](C)N(C)C1=O [compound 4] (cyclo([Ala(4-thiazolyl)][dNMeA][Nme][Phe(4-F)]T(Methoxyacetyl)[Phe(4-Cl)][NMeF][dP][hSer](Me)[NMeA]))
50 to 100 nM	25 to 50 nM	–	–	COCC[C@@H]1NC(=O)[C@H]2CCCN2C(=O)[C@H](Cc2ccccc2)N(C)C(=O)[C@H](Cc2ccc(Cl)cc2)NC(=O)[C@H]([C@@H](C)OC(=O)CC(C)C)NC(=O)[C@H](Cc2ccc(F)cc2)NC(=O)CN(CCOC)C(=O)[C@@H](C)N(C)C(=O)[C@H](Cc2cscn2)NC(=O)[C@H](C)N(C)C1=O [compound 5] (cyclo([Ala(4-thiazolyl)][dNMeA][Nme][Phe(4-F)]T(Isovaleryl)[Phe(4-Cl)][NMeF][dP][hSer](Me)[NMeA]))
50 to 100 nM	25 to 50 nM	–	–	COCC[C@@H]1NC(=O)[C@H]2CCCN2C(=O)[C@H](Cc2ccccc2)N(C)C(=O)[C@H](Cc2ccc(Cl)cc2)NC(=O)[C@H]([C@@H](C)OC(=O)C(F)F)NC(=O)[C@H](Cc2ccc(F)cc2)NC(=O)CN(CCOC)C(=O)[C@@H](C)N(C)C(=O)[C@H](Cc2cscn2)NC(=O)[C@H](C)N(C)C1=O [compound 7] (cyclo([Ala(4-thiazolyl)][dNMeA][Nme][Phe(4-F)]T(X1)[Phe(4-Cl)][NMeF][dP][hSer](Me)[NMeA]))
25 to 50 nM	< 25 nM	–	–	COCC[C@@H]1NC(=O)[C@H]2CCCN2C(=O)[C@H](Cc2ccccc2)N(C)C(=O)[C@H](Cc2ccc(Cl)cc2)NC(=O)[C@H]([C@@H](C)O)NC(=O)[C@H](Cc2ccc(F)cc2)NC(=O)CN(CCOC)C(=O)[C@@H](C)N(C)C(=O)[C@H](Cc2cscn2)NC(=O)[C@H](C)N(C)C1=O [compound 18] (cyclo([hSer](Me)[NMeA][Ala(4-thiazolyl)][dNMeA][Nme][Phe(4-F)]T[Phe(4-Cl)][NMeF][dP]))
25 to 50 nM	< 25 nM	–	–	CC[C@H](C)[C@@H]1NC(=O)[C@H](Cc2ccc(F)cc2)NC(=O)CN(CCOC)C(=O)[C@@H](C)N(C)C(=O)[C@H](Cc2cscn2)NC(=O)[C@H](C)N(C)C(=O)[C@H](CCOC)NC(=O)[C@H]2CCCN2C(=O)[C@H](Cc2ccccc2)N(C)C(=O)[C@H](Cc2ccc(Cl)cc2)NC1=O [compound 16] (cyclo([Ala(4-thiazolyl)][dNMeA][Nme][Phe(4-F)]I[Phe(4-Cl)][NMeF][dP][hSer](Me)[NMeA]))
